Experiments:
[1] = target: T1, G12D-mutant human KRAS (amino acid residues 1-188) (Homo sapiens, UniProt P01116, G12D); assay: KRAS Binding Disruption Assay (AlphaScreen; biotinylated KRpep-2d analogue or RAF1-RBD), G12D; conditions: KRAS G12D; geometric mean; read-out: KRAS GMean IC50 (uM) MUTATION: G12D
T1 construct: G12D or G12C-mutant human KRAS (amino acid residues 1-188) with FLAG tag; made in house; host or cells: E. coli
In short: (§1)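 AlphaScreen readout: signal falls as compound displaces biotinylated KRpep-2d analogue or RAF1-RBD from mutant KRAS. Both partners at 5-20 nM, 1 h binding at 25° C, then 10 μg/mL Anti-Flag acceptor and streptavidin donor beads for 1 h. IC50 by nonlinear regression of % inhibition.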

[2] = target: T2, G12C-mutant human KRAS (amino acid residues 1-188) (Homo sapiens, UniProt P01116, G12C); assay: KRAS Binding Disruption Assay (AlphaScreen; biotinylated KRpep-2d analogue or RAF1-RBD), G12C; conditions: geometric mean, read-out: KRAS GMean IC50 (uM) MUTATION: G12C
T2 construct: G12D or G12C-mutant human KRAS (amino acid residues 1-188) with FLAG tag; made in house; host or cells: E. coli
In short: as §1

[3] = target: T3, G12V-mutant human KRAS (amino acid residues 1-188) (Homo sapiens, UniProt P01116, G12V); assay: KRAS Binding Competition Assay (AlphaScreen; biotinylated KRpep-2d analogue), G12V; conditions: geometric mean, read-out: KRAS GMean IC50 (uM) MUTATION: G12V
T3 construct: G12V-mutant human KRAS (amino acid residues 1-188) with FLAG tag was purified from E. coli; made in house; host or cells: E. coli

| Structure (SMILES) | IC50 [1] | IC50 [2] | IC50 [3] |
| --- | --- | --- | --- |
| CN1CCN(CCC(=O)N2[C@@H]3CC[C@H]2CN(c2nc(OC[C@@H]4CCCN4C)nc4cc(-c5cc(O)cc6ccccc56)ccc24)C3)CC1 [P-0116, 1-((1R,5S)-3-(7-(3-hydroxynaphthalen-1-yl)-2-(((S)-1-methylpyrrolidin-2-yl)methoxy)quinazolin-4-yl)-3,8-diazabicyclo[3.2.1]octan-8-yl)-3-(4-methylpiperazin-1-yl)propan-1-one] | 0.0001 to 10 µM | 10 to 100 µM | 10 to 100 µM |
| CN1CCC[C@H]1COc1nc(N2C[C@H]3CC[C@@H](C2)N3C(=O)Cc2c[nH]cn2)c2ccc(-c3cc(O)cc4ccccc34)cc2n1 [P-0117, 1-((1R,5S)-3-(7-(3-hydroxynaphthalen-1-yl)-2-(((S)-1-methylpyrrolidin-2-yl)methoxy)quinazolin-4-yl)-3,8-diazabicyclo[3.2.1]octan-8-yl)-2-(1H-imidazol-4-yl)ethan-1-one] | 0.0001 to 10 µM | 0.0001 to 10 µM | 0.0001 to 10 µM |
| CN1CCC[C@H]1COc1nc(N2C[C@H]3CC[C@@H](C2)N3C(=O)CN2CCCC2)c2ccc(-c3cc(O)cc4ccccc34)cc2n1 [P-0118, 1-((1R,5S)-3-(7-(3-hydroxynaphthalen-1-yl)-2-(((S)-1-methylpyrrolidin-2-yl)methoxy)quinazolin-4-yl)-3,8-diazabicyclo[3.2.1]octan-8-yl)-2-(pyrrolidin-1-yl)ethan-1-one] | 0.0001 to 10 µM | 0.0001 to 10 µM | 10 to 100 µM |

Next, values leading:

| IC50 [1] | IC50 [2] | IC50 [3] | Structure (SMILES) |
| --- | --- | --- | --- |
| 0.0001 to 10 µM | 0.0001 to 10 µM | 10 to 100 µM | CN1CCN(CCCC(=O)N2[C@@H]3CC[C@H]2CN(c2nc(OC[C@@H]4CCCN4C)nc4cc(-c5cc(O)cc6ccccc56)ccc24)C3)CC1 [P-0119, 1-((1R,5S)-3-(7-(3-hydroxynaphthalen-1-yl)-2-(((S)-1-methylpyrrolidin-2-yl)methoxy)quinazolin-4-yl)-3,8-diazabicyclo[3.2.1]octan-8-yl)-4-(4-methylpiperazin-1-yl)butan-1-one] |
| 0.0001 to 10 µM | 0.0001 to 10 µM | 0.0001 to 10 µM | CN1CCC[C@H]1COc1nc(N2C[C@H]3CC[C@@H](C2)N3C(=O)CCn2cccn2)c2ccc(-c3cc(O)cc4ccccc34)cc2n1 [P-0120, 1-((1R,5S)-3-(7-(3-hydroxynaphthalen-1-yl)-2-(((S)-1-methylpyrrolidin-2-yl)methoxy)quinazolin-4-yl)-3,8-diazabicyclo[3.2.1]octan-8-yl)-3-(1H-pyrazol-1-yl)propan-1-one] |
| 0.0001 to 10 µM | 10 to 100 µM | 10 to 100 µM | CN1CCC[C@H]1COc1nc(N2C[C@H]3CC[C@@H](C2)N3C(=O)Cc2cnccn2)c2ccc(-c3cc(O)cc4ccccc34)cc2n1 [P-0121, 1-((1R,5S)-3-(7-(3-hydroxynaphthalen-1-yl)-2-(((S)-1-methylpyrrolidin-2-yl)methoxy)quinazolin-4-yl)-3,8-diazabicyclo[3.2.1]octan-8-yl)-2-(pyrazin-2-yl)ethan-1-one] |
| 0.0001 to 10 µM | 0.0001 to 10 µM | 0.0001 to 10 µM | O=C(N[C@@H]1CCNC1)N1[C@@H]2CC[C@H]1CN(c1nc(OCC34CCCN3CCC4)nc3cc(-c4cc(O)cc5ccccc45)ccc13)C2 [P-0122, (1R,5S)-3-(7-(3-hydroxynaphthalen-1-yl)-2-((tetrahydro-1H-pyrrolizin-7a(5H)-yl)methoxy)quinazolin-4-yl)-N-((R)-pyrrolidin-3-yl)-3,8-diazabicyclo[3.2.1]octane-8-carboxamide] |
| 0.0001 to 10 µM | 0.0001 to 10 µM | 0.0001 to 10 µM | O=C(N[C@H]1CCNC1)N1[C@@H]2CC[C@H]1CN(c1nc(OCC34CCCN3CCC4)nc3cc(-c4cc(O)cc5ccccc45)ccc13)C2 [P-0123, (1R,5S)-3-(7-(3-hydroxynaphthalen-1-yl)-2-((tetrahydro-1H-pyrrolizin-7a(5H)-yl)methoxy)quinazolin-4-yl)-N-((S)-pyrrolidin-3-yl)-3,8-diazabicyclo[3.2.1]octane-8-carboxamide] |
